Measurements: ChEMBL document CHEMBL1134740, “3,28-Di-O-(dimethylsuccinyl)-betulin isomers as anti-HIV agents” (Bioorg Med Chem Lett, 2001)

Tests used:
[1] = Therapeutic Index (IC50/EC50) of the compound
H9 [2] = experiment: Evaluated for the anti-HIV activity against HIV-1 replication in H9 lymphocyte cells; assay type: functional, cell-based; settings: Homo sapiens
H9 [3] = experiment: Evaluated for the anti-HIV activity against HIV-1 replication in mock-infected H9 cells; assay type: functional, cell-based; settings: Homo sapiens
[4] = Therapeutic Index (IC50/EC50) of the compound; Toxic at all concentrations
H9 [5] = experiment: Evaluated for the anti-HIV activity against HIV-1 replication in H9 lymphocyte cells; Toxic at all concentrations; assay type: functional, cell-based; settings: Homo sapiens

## C=C(C)[C@@H]1CC[C@]2(COC(=O)CC(C)(C)C(=O)O)CC[C@]3(C)[C@H](CC[C@@H]4[C@@]5(C)CC[C@H](O)C(C)(C)[C@@H]5CC[C@]43C)[C@@H]12
[1]
  selectivity ratio: > 207
H9 [2]
  EC50: < 180 nM
H9 [3]
  IC50: 37.4 µM

## C=C(C)[C@@H]1CC[C@]2(COC(=O)C(C)(C)CC(=O)O)CC[C@]3(C)[C@H](CC[C@@H]4[C@@]5(C)CC[C@H](O)C(C)(C)[C@@H]5CC[C@]43C)[C@@H]12
[1]
  selectivity ratio: 159
H9 [2]
  EC50: 180 nM
H9 [3]
  IC50: 28.6 µM

## C=C(C)[C@@H]1CC[C@]2(C(=O)O)CC[C@]3(C)[C@H](CC[C@@H]4[C@@]5(C)CC[C@H](OC(=O)COCC(=O)O)C(C)(C)[C@@H]5CC[C@]43C)[C@@H]12
[1]
  selectivity ratio: 1170

## C=C(C)[C@@H]1CC[C@]2(COC(=O)CC(C)(C)CC(=O)O)CC[C@]3(C)[C@H](CC[C@@H]4[C@@]5(C)CC[C@H](OC(=O)CC(C)(C)CC(=O)O)C(C)(C)[C@@H]5CC[C@]43C)[C@@H]12
[1]
  selectivity ratio: 21500

## C=C(C)[C@@H]1CC[C@]2(COC(=O)CC(C)(C)C(=O)O)CC[C@]3(C)[C@H](CC[C@@H]4[C@@]5(C)CC[C@H](OC(=O)C(C)(C)CC(=O)O)C(C)(C)[C@@H]5CC[C@]43C)[C@@H]12
[1]
  selectivity ratio: 96.5
H9 [2]
  EC50: 400 nM
H9 [3]
  IC50: 38.6 µM

## C=C(C)[C@@H]1CC[C@]2(COC(=O)C(C)(C)CC(=O)O)CC[C@]3(C)[C@H](CC[C@@H]4[C@@]5(C)CC[C@H](OC(=O)CC(C)(C)C(=O)O)C(C)(C)[C@@H]5CC[C@]43C)[C@@H]12
[1]
  selectivity ratio: 42400
H9 [2]
  EC50: 0.87 nM
H9 [3]
  IC50: 36.9 µM

## C=C(C)[C@@H]1CC[C@]2(COC(=O)C(C)(C)CC(=O)O)CC[C@]3(C)[C@H](CC[C@@H]4[C@@]5(C)CC[C@H](OC(=O)C(C)(C)CC(=O)O)C(C)(C)[C@@H]5CC[C@]43C)[C@@H]12
[4]
  Ratio: Toxic at all concentrations
H9 [5]
  Activity: Toxic at all concentrations

## C=C(C)[C@@H]1CC[C@]2(COC(=O)CC(C)(C)C(=O)O)CC[C@]3(C)[C@H](CC[C@@H]4[C@@]5(C)CC[C@H](OC(=O)CC(C)(C)C(=O)O)C(C)(C)[C@@H]5CC[C@]43C)[C@@H]12
[1]
  selectivity ratio: 1680
H9 [2]
  EC50: 20 nM
H9 [3]
  IC50: 33.6 µM

## C=C(C)[C@@H]1CC[C@]2(C(=O)O)CC[C@]3(C)[C@H](CC[C@@H]4[C@@]5(C)CC[C@H](OC(=O)CC(C)(C)C(=O)O)C(C)(C)[C@@H]5CC[C@]43C)[C@@H]12 [BEVIRIMAT]
[1]
  selectivity ratio: > 20000
H9 [2]
  EC50: < 0.35 nM
